Numbers after ± are expanded uncertainties.
Key:
[1] = 101.33 kPa, Liquid, Vibrating tube method
[2] = refractive index (Na D-line) (dimensionless); details: 298.2 K; 101.33 kPa; Liquid; Standard Abbe refractometry

Compound: CCCCCCCCCCCCS [1-dodecanethiol]
- mass density ([1]; 293.2 K): 843.94 ± 0.24 kg/m3
- refractive index [2]: 1.4586 ± 0.0008

Compound: CCCCCCCCCCO [decan-1-ol]
- mass density ([1]; 298.2 K): 826.48 ± 0.24 kg/m3
- refractive index [2]: 1.4349 ± 0.0008

Compound: CCCCCCCCCCCCO [dodecan-1-ol]
- mass density ([1]; 298.2 K): 829.76 ± 0.24 kg/m3
- refractive index [2]: 1.4412 ± 0.0008

From the NIST ThermoML archive (doi:10.1016/j.tca.2013.02.006)
